Test results published in PubChem BioAssay (NCI).
Several values for one entry are separate records, joined by “and”; a condition that tells them apart may be missing. Equal entries are not always repeated.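 1) Cells in 96-well plates. 2) Compound, 48 h, 5 concentrations. 3) Linear interpolation between surrounding doses. 4) Unreached endpoint = highest concentration. GI50: concentration for 50% inhibition of growth. TGI: total growth inhibition.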

Assays:
Assay in all cases: DTP human tumour cell line panel, 48 h
[1] = tested on: BT-549 breast
[2] = tested on: MDA-N
[3] = tested on: DLD-1 colon
[4] = tested on: DMS 114 small cell lung
[5] = tested on: HOP-18 NSCLC
[6] = tested on: KM20L2 colon
[7] = tested on: SNB-78 CNS
[8] = tested on: LXFL 529 NSCLC
[9] = tested on: RXF-631 renal

SMILES | GI50 [1] | TGI [1] | TGI [2] | TGI [3] | TGI [4] | TGI [5] | TGI [6] | TGI [7] | TGI [8] | TGI [9]
COc1ccc2c(c1)/C(=C\c1c(-c3ccccc3)nc3sccn13)C(=O)N2 | 3 µM | 13.9 µM | – | – | – | – | – | – | – | –
C[C@]1(c2nc3c(C(N)=O)cccc3[nH]2)CCCN1 | > 100 µM | > 100 µM | – | – | – | – | – | – | – | –
Cc1ccc(S(=O)(=O)NC(Cc2ccccc2)C(=O)CCl)cc1 (centres undefined) | – | 23.9 µM | 27.8 µM | – | – | – | – | – | – | –
O=C(Nc1ccc(Cl)cc1)c1cc(NCc2cc(O)ccc2O)ccc1O | 1.42 µM | 3.57 µM | – | – | – | – | – | – | – | –
COc1nc2c(c(=O)n1C)CN(c1ccccc1)C(=O)CN2C | 33.2 µM | > 100 µM | – | – | – | – | – | – | – | –
CCCCSC1CCSc2c1ccc1ccccc21 (centres undefined) | – | – | – | > 100 µM | > 100 µM | > 100 µM | > 100 µM | > 100 µM | – | –
O=C(O)c1nn(-c2ccc(Cl)cc2)c2c1C(=O)c1ccccc1C2=O | – | > 100 µM | > 100 µM | – | – | – | – | – | – | –
NC(CCl)=NCC12CC3CC(CC(C3)C1)C2 | 2.43 µM | 14.2 µM | – | – | – | – | – | – | – | –
CCCC[C@H](CCc1ccccc1)N(C(=O)OC)N1CCC[C@H]1COC | – | – | – | 34.8 µM | 30.2 µM | 53.1 µM | 30.2 µM | 47.3 µM | 39.6 µM | 32.4 µM
CC[C@H](C)[C@H](NC(=O)c1ncccn1)C(=O)N(C)[C@H](C[C@@H](OC(C)=O)c1nc(C(=O)N[C@@H](Cc2ccccc2)C[C@H](C)C(=O)OC)cs1)C(C)C | 1.47 µM | 11.7 µM | – | – | – | – | – | – | – | –
Cn1cc(-c2ncnc3ccc(-c4cnc(Cl)c(NS(C)(=O)=O)c4)cc23)c2ccccc21 | 0.566 µM | 7.68 µM | – | – | – | – | – | – | – | –
COc1cc(/C=C/C(=O)c2ccccc2O)ccc1OCCCOc1cc2c(cc1OC)C(=O)N1CCC[C@H]1C=N2 | 0.0179 µM | 0.0476 µM | – | – | – | – | – | – | – | –
O=C(N/C(=C\c1cccc([N+](=O)[O-])c1)c1nc2c3c(ccc2[nH]1)C(=O)c1ccccc1C3=O)c1ccccc1 | – | – | – | > 100 µM | > 100 µM | > 100 µM | > 100 µM | > 100 µM | > 100 µM | –
COc1ccc(-c2oc3ncnc(N)c3c2-c2ccc(NC(=O)Nc3cc(C(F)(F)F)ccc3F)cc2)cc1 | 1.82 µM | 5.08 µM | – | – | – | – | – | – | – | –
O=c1cc(-c2ccccc2)oc2c(O)c(O)ccc12 | 8.36 µM | 42.3 µM | – | – | – | – | – | – | – | –
N#Cc1c(N)c(C(=O)c2ccc3c(c2)OCCO3)n2c1CCCC2 | 4.8 µM | > 100 µM | – | – | – | – | – | – | – | –
Cc1cc(C)c([I+]c2c(C)cc(C)cc2C)c(C)c1 | 0.466 µM | 1.59 µM | – | – | – | – | – | – | – | –
O=C(O)C(Cc1ccccc1)N=Cc1nc(-c2ccccc2)oc1O (centres undefined) | – | – | – | > 100 µM | – | – | > 100 µM | > 100 µM | > 100 µM | > 100 µM
CCCCCCCCCCCCCCCCCC1=NC(C)(C)CN1C(C)(C)CO | 3.28 µM | 14 µM | – | – | – | – | – | – | – | –

SMILES | GI50 [1] | TGI [1] | TGI [2] | TGI [3] | TGI [4] | TGI [5] | TGI [6] | TGI [7] | TGI [8] | TGI [9]
N#Cc1ccc2[nH]cc(Cc3c[nH]c4ccc(C#N)cc34)c2c1 | 9.57 µM | 20.7 µM | – | – | – | – | – | – | – | –
COC(=O)[C@@H](C)C[C@H](Cc1ccccc1)NC(=O)c1csc([C@@H](C[C@H](C(C)C)N(C)C(=O)[C@@H](NC(=O)[C@H]2CCCCN2C)c2ccc(F)cc2)OC(C)=O)n1 | – | 0.0853 µM and 0.661 µM | – | – | – | – | – | – | – | –
CSc1nc2c(nc(N)n2C2OC(CO)C(O)C(O)C2O)c(=O)[nH]1 (centres undefined) | – | – | – | > 100 µM | > 100 µM | > 100 µM | > 100 µM | > 100 µM | > 100 µM | > 100 µM
Clc1ccc(-c2nnc(-c3nn(-c4ccccc4)c4nc5ccccc5nc34)o2)cc1 | – | – | – | > 100 µM | > 100 µM | > 100 µM | > 100 µM | > 100 µM | > 100 µM | –
NCCCNCc1c2ccccc2c(CNCCCN)c2ccccc12 | – | – | – | > 100 µM | 37.8 µM | 75 µM | 53.4 µM | 60.1 µM | 24.5 µM | –
Oc1ccc(O)c(-n2cccn2)c1 | – | – | – | > 100 µM | 89.7 µM | – | > 100 µM | > 100 µM | 38.9 µM | > 100 µM
COc1ccc2c(c1)C(=O)/C(=C/c1ccc(O)cc1)O2 | 12.7 µM | 29.8 µM | – | – | – | – | – | – | – | –
CC(C)(C)OC(=O)NC(Cc1ccccc1)C(=S)N1CCCC1 (centres undefined) | – | – | – | > 100 µM | > 100 µM | > 100 µM | > 100 µM | > 100 µM | > 100 µM | > 100 µM
CC1(C)N=C(N)N=C(N)N1c1cccc(CCCCc2ccc(Cl)c(S(=O)(=O)F)c2)c1 | 1.35 µM | 17.7 µM | – | – | – | – | – | – | – | –
C=CCN=C1NC(=O)C(CC(=O)Nc2cccc(Cl)c2)S1 (centres undefined) | – | – | – | > 100 µM | > 100 µM | > 100 µM | > 100 µM | – | > 100 µM | > 100 µM
C/C(=N\NC(=O)c1ccccc1O)c1c(O)cc(C)oc1=O | – | – | – | > 100 µM | > 100 µM | > 100 µM | > 100 µM | > 100 µM | > 100 µM | –
O=C(NC1CCCCC1)NC12CC3CC(CC(F)(C3)C1)C2 | – | – | – | > 100 µM | > 100 µM | – | > 100 µM | > 100 µM | > 100 µM | > 100 µM
C=CCC1(CN(C)C)CC/C(=C\c2cc(OC)c(OC)c(OC)c2)C1=O (centres undefined) | – | – | – | 38.5 µM | 39.5 µM | > 100 µM | 44.4 µM | > 100 µM | 35.2 µM | 60.9 µM
Oc1cccc2cccnc12 | – | > 100 µM | > 100 µM | > 100 µM | – | > 100 µM | – | – | > 100 µM | –
Cc1cc2[nH]c(=O)c3c4ncccc4cn3c2cc1C | 14.5 µM | 41.4 µM | – | – | – | – | – | – | – | –
OCC#Cc1ccccc1C#Cc1ccc(C#Cc2ccccc2C#CCO)cc1 | 0.68 µM | 32.2 µM | – | – | – | – | – | – | – | –
O=c1cccccc1O | – | > 100 µM | > 100 µM | – | – | – | – | – | – | –
CCCC(=O)Oc1ccc(/C=N/NC(N)=S)nc1 | – | – | – | > 100 µM | > 100 µM | > 100 µM | > 100 µM | > 100 µM | > 100 µM | –
